Data: PubChem BioAssay AID2305 (GlaxoSmithKline (GSK), 2010)
“And” between values parts separate entries of the source, which are not always exact repeats. Identical values can stand only once.

System: P. falciparum 3D7 growth, pLDH absorbance
Assay: blood-stage malaria parasite growth potency – strain 3D7, dose response (AID 2305)

| SMILES | IC50 |
| --- | --- |
| COC(=O)c1ccc(CC(C)NCC(O)c2cccc(C(F)(F)F)c2)cc1 (configuration not stated) | 970 nM and 1150 nM |
| CCN(CC)C(=NCCCCCCN=C(NC(N)=NCc1cccc(Cl)c1)N(CC)CC)NC(N)=NCc1cccc(Cl)c1 | 210 nM |
| COc1ccc(Nc2nc(NCc3cccc(NS(C)(=O)=O)c3)cc(-c3ccc(OC)cc3)n2)cc1 | 1220 nM |
| CC(C)(C)N1CCC(N(Cc2ccc(-c3ccc(C(F)(F)F)cc3)cc2)C(=O)Cn2c(CCc3cccc(F)c3F)cc(=O)c3cccnc32)CC1 | 710 nM |
| CCOc1ccc(C(=O)Nc2cc(Br)c3c(c2)CNCC3)cc1Br | 990 nM |
| CN1CCCN(Cc2cccc(-c3ccc(NS(=O)(=O)c4cccc5cccnc45)cc3)c2)CC1 | 960 nM |
| CC(=O)C1(c2ccccc2)CCN(CCC2(c3ccc(Cl)c(Cl)c3)CN(C(=O)Nc3cccc(C(F)(F)F)c3)CCO2)CC1 (configuration not stated) | 1050 nM |
| CNC(=O)c1cc(S(=O)(=O)Nc2ccc(OC)cc2)cs1 | 1130 nM |
| COc1ccc2c(c1CNCCCCCCNCc1c(OC)ccc3c1CCCC3)CCCC2 | 910 nM |
| COc1ccc(C(=C(C)CC(C)C(=O)O)c2ccccc2)cc1 (configuration not stated) | 840 nM |
| NCC1CCCN1Cc1cccc(-c2cccc(-c3nc4ccc(F)cc4[nH]3)c2)c1 (configuration not stated) | 810 nM |
| Cc1cc(NC(=O)CCN2CCN(c3cccc(Cl)c3Cl)CC2)ccc1N1CCN(C(C)C)CC1 | 850 nM |
| Cc1cccc(-c2ccc3c(c2)CC(NCc2cccc(-n4ccnc4)c2)C3)c1 (configuration not stated) | 870 nM |
| CN1CCN(c2cc3c(cc2Cl)CCN3C(=O)Cc2ccc(Cl)c(NC(=O)Nc3cccc([N+](=O)[O-])c3)c2)CC1 | 720 nM |
| OC(CNc1cccc(Cl)c1)Cn1c2ccc(Cl)cc2c2cc(Cl)ccc21 (configuration not stated) | 960 nM |
| N=C(N)c1ccc(NN=Cc2ccc(Oc3ccc(C(=N)N)cc3)cc2)cc1 | 90 nM |
| COc1cc2ncnc(Nc3ccc4nc(-c5ccccc5)[nH]c4c3)c2cc1OC | 440 nM |
| CC(=O)Oc1cc(C)ccc1C1CCN(CCCCNC(=O)c2ccc(NC(=O)c3ccc(Cl)cc3)cc2)CC1 | 720 nM |
| Clc1ccc(Cl)c2[nH]c(CNCCCNc3nc4ccccc4[nH]3)cc12 | 160 nM |
| Cc1cccc2[nH]c(-c3ccc(-c4ccc(NC(=O)C(C)CN5CCN(C)CC5)cc4)s3)nc12 (configuration not stated) | 730 nM |
| O=C(c1ccc([N+](=O)[O-])o1)N1CCC(c2cn(Cc3cccc(F)c3)c3ccccc23)CC1 | 640 nM |
| O=C(Nc1ccsc1)Nc1cccc(-c2cccc(-c3nc4ccc(C(F)(F)F)cc4[nH]3)c2)c1 | 150 nM |
| C[C@@H](CC1CCCCC1)NCc1cccc(NS(=O)(=O)c2ccc(O)c(-c3ccno3)c2)c1 | 380 nM |
| O=C(Nc1cccc(CN2CCCN(Cc3ccsc3)CC2)c1)c1cc2ccccc2s1 | 760 nM |
| N#Cc1ccc(CNCCCCCCNCc2ccc(C#N)c3ccccc23)c2ccccc12 | 610 nM |

| SMILES | IC50 |
| --- | --- |
| CC(C)c1ccc(-c2noc(SCC(=O)N(C)c3ccc(F)cc3)n2)cc1 | 1170 nM |
| Oc1ccc2[nH]cc(C3CCN(CCC(c4ccccc4)c4ccccc4)CC3)c2c1 | 990 nM |
| O=S(=O)(Nc1cccc(CCN2CCC(N3CCCCC3)CC2)c1)c1ccc(Oc2ccccc2)cc1 | 770 nM |
| COc1cccc(CNC(=O)[C@H]2CNCCN2C(=O)CCCc2ccccc2)c1 | 790 nM |
| NC(N)=NCCCN(Cc1ccccc1)c1ccc(Cl)cc1 | 560 nM |
| Cc1ccc(C(=O)c2oc3ccc4c(C)cc(=O)oc4c3c2C)cc1 | 1030 nM |
| Cc1ccc(-c2cc(C(=O)Nc3ccc(S(=O)(=O)N4CCCC(C)C4)cc3)[nH]n2)c(O)c1 (configuration not stated) | 280 nM |
| COc1ccc2nc3cc(Cl)ccc3c(NCCCO)c2c1 | 780 nM |
| COc1ccc(NC(=O)Nc2cccc(-c3cccc(-c4nc5ccccc5[nH]4)c3)c2)cc1 | 310 nM |
| CCc1cn(C)c2c(N3CCCC3=O)cc(C(=O)N[C@@H](Cc3ccccc3)[C@H](O)CNC(C)(C)c3cccc(C(F)(F)F)c3)cc12 | 110 nM |
| O=C(Nc1cccc(F)c1)N(Cc1ccc(-c2ccc(CN3CCNCC3)cc2)cc1)C1CCN(Cc2ccccc2)CC1 | 770 nM |
| C[C@@H](Nc1nc(NCc2ccccc2)c2sccc2n1)c1ccccc1 | 920 nM |
| O=S(=O)(NCCN1CCCC1)c1ccc(-c2cccc(CNC3Cc4ccccc4C3)c2)cc1 | 620 nM |
| Fc1ccc2nc(-c3ccc(-c4ccc(CNCc5ccccc5)cc4)cc3)[nH]c2c1 | 280 nM |
| CC(=O)Nc1nc(C(=O)Nc2cccc(-c3cccc(-c4nc5ccc(F)cc5[nH]4)c3)c2)cs1 | 90 nM |
| O=C1c2ccc([N+](=O)[O-])cc2C(=O)N1c1ccc2[nH]ncc2c1 | 1150 nM |
| CCN(CCO)CCc1cccc(Nc2nccc(-c3c(-c4ccc(NC(=O)N(CC)CC)cc4)nn4ccccc34)n2)c1 | 1110 nM |
| O=P(O)(O)Oc1c(Br)cc(Br)cc1-c1cc(Br)cc(Br)c1O | 170 nM |
| COC(=O)Nc1nc2cc3c(cc2s1)OCCO3 | 840 nM |
| Cc1cc(O)c2c(c1)OC(C)(C)C=C2C1=CCN(Cc2ccccc2)CC1 | 790 nM |
| CCN(CC)C(=NC(N)=NCCCCCCN=C(N)N=C(Nc1ccc(Cl)cc1)N(CC)CC)Nc1ccc(Cl)cc1 | 930 nM |
| CNCCCNCc1ccc(-c2ccc(F)c(Cl)c2)o1 | 750 nM |
| CCOC(=O)c1cn(CC)c2cc(O[C@H]3CCN(C(=O)OC(C)(C)C)C3)ccc2c1=O | 550 nM |
| CC[C@H]1CN2CC[C@H]1C[C@H]2[C@H](O)c1cc(N2CCCC2)nc2ccc(OC)cc12 | 40 nM |
| Cc1cnc(NCC2CCCCC2)nc1N[C@@H](CC(C)C)C(=O)Nc1ccccc1 | 870 nM |

| SMILES | IC50 |
| --- | --- |
| Cc1cc(C(F)(F)F)cc(-n2ncc(-c3ccc(C(=O)NCc4ccccc4N)cc3)c2N)n1 | 450 nM |
| COc1ccc(CNC(=O)NC2CCN(c3ccnc(Nc4ccc(F)cc4)n3)C2)cc1 (configuration not stated) | 840 nM |
| CC1CN(c2ccc(NC(=O)c3ccc(F)cc3)cc2)CCN1Cc1cccc(F)c1 (configuration not stated) | 1350 nM |
| Cc1cc(N[C@@H](CC(C)C)C(=O)NCCCOC(C)C)nc(NCCc2ccc(F)cc2)n1 | 1250 nM |
| CC(C)(C)c1ccc(/C=C/C(=O)NCCCCCN2CCC(c3c[nH]c4ccccc34)CC2)cc1 | 1090 nM |
| COc1cccc(CC(C)NCC(O)c2cccc(Cl)c2)c1 (configuration not stated) | 1270 nM |
| N#Cc1cccc(C(=O)Nc2ccc(-c3nc4ccccc4[nH]3)cc2)c1 | 540 nM |
| Cc1ccc([C@@H]2CC(=O)CC(c3ccccn3)[C@H]2[N+](=O)[O-])cc1 (some centres not stated) | 860 nM |
| COc1ccc(CNC2CCCC2)cc1-c1ccc(S(=O)(=O)NCCN2CCCC2)s1 | 800 nM |
| CCCCNc1cc(C)nc(NCc2ccccc2)n1 | 970 nM |
| O=C(/C=C/c1ccc(Cl)c(Cl)c1)NCCCCCN1CCCN(C(=O)Nc2cccc(Cl)c2)CC1 | 670 nM |
| O=C(Nc1nc2cc(S(=O)(=O)NCCc3ccc(F)cc3)ccc2n1CCCn1ccnc1)c1ccc(Cl)cc1 | 1110 nM |
| O=S(=O)(c1c(Cl)cc(Cl)cc1Cl)N1CCCCC(c2ccc(F)c(F)c2)=N1 | 590 nM |
| CC(CNC(=O)[C@H]1CNCCN1C(=O)CCCc1ccccc1)c1ccccc1 (some centres not stated) | 920 nM |
| O=[N+]([O-])c1ccc(-c2ccc(C=NNc3nc(Nc4ccccc4)nc(Nc4ccccc4)n3)o2)cc1 | 1430 nM |
| CCOc1cc(CC)ccc1C1CCN(CCCCNC(=O)c2ccc(NC(=O)c3ccc(Cl)cc3)cc2)CC1 | 740 nM |
| COc1ccc(Nc2ncc3c(-c4cccc(NC(=O)Cc5cccc(O)c5)c4)c[nH]c3n2)cc1OC | 700 nM |
| COc1ccc(CCNCCCCCCNCCc2ccc(-c3ccccc3)cc2)cc1OC | 960 nM |
| O=C(NCc1ccc(F)cc1)Nc1ccc(-c2cccc(-c3nc4ccc(C(F)(F)F)cc4[nH]3)c2)cc1 | 950 nM |
| CCCCC1=CC2C(=O)C(C(=O)OC)=CN=C2C=C1OCc1ccccc1 (configuration not stated) | 40 nM |
| Cc1cccc2[nH]c(-c3cccc(-c4ccc(NC(=O)c5cccc(C(N)=O)c5)cc4)c3)nc12 | 410 nM |
| COc1cccc(CN2CCC(N3CCc4cc(NC(=O)c5cc(C)on5)ccc43)C2)c1OC (configuration not stated) | 950 nM |
| COc1cc2nc(N3CCC(CNC(=O)c4ccc(-c5ccc(-c6noc(C)n6)cc5)cc4)CC3)nc(N)c2cc1OC | 140 nM |
| COc1cc(NC(=O)c2cc([N+](=O)[O-])ccc2NC(=O)CNC2CCCC(C)C2C)cc(OC)c1 (configuration not stated) | 1040 nM |
| CCCN1CCN(c2cc(NCC)c3c4c(onc24)-c2ccccc2C3=O)CC1 | 1060 nM |

| SMILES | IC50 |
| --- | --- |
| O=C(Nc1ccc(OC2CCN(Cc3ccccc3)C2)c(Cl)c1)c1ccco1 (configuration not stated) | 410 nM |
| FC(F)(F)c1ccc(N2CCCN(Cc3cccc(-c4ccccc4CNCc4ccc5c(c4)OCO5)c3)CC2)nc1 | 1190 nM |
| COc1ccc2nccc(N3CCC(NCCNCc4ccc5c(n4)NC(=O)CO5)C3)c2n1 (configuration not stated) | 860 nM |
| CC(CN(C)C)C(=O)Nc1ccc(-c2ccc(-c3nc4ccc(C(F)(F)F)cc4[nH]3)cc2)cc1 (configuration not stated) | 750 nM |
| O=C(c1cc(C(=O)Nc2ccc(F)cc2)c(=O)n(-c2ccc(F)cc2)c1)c1cc(Cl)ccc1O | 220 nM |
| COC(C(=O)OCCC1CCCN1C)(c1ccccc1)C1CCCCC1 (configuration not stated) | 710 nM |
| CCCCCCCN(Cc1ccc(OC(C)(C)C(=O)OCC)cc1)C(=O)Nc1ccc(Cl)cc1OCC | 820 nM |
| CS(=O)(=O)c1cccc(-c2cnc3[nH]cc(-c4ccc(C(=O)O)cc4)c3c2)c1 | 340 nM |
| CS(=O)(=O)c1ccc(CCNCc2ccc(-c3ccc(CN(C(=O)C4CC(=O)c5ccccc54)C4CCN(Cc5ccccc5)CC4)cc3)nc2)cc1 (configuration not stated) | 590 nM |
| CCOc1ccccc1CNc1nccc(NCCc2cn(C)c3ccccc23)n1 | 1260 nM |
| Cc1ccc(F)cc1S(=O)(=O)Nc1ccc(CCN2CCC(N3CCCCC3)CC2)cc1 | 720 nM |
| Cc1ccc(C)c(NC(=O)Nc2ccc(Nc3nc(C)cc(N4CCOCC4)n3)cc2)c1 | 980 nM |
| Cc1c(CC(=O)NCCC2CCN(CCCCCNC(=O)/C=C/c3ccc(Cl)c(Cl)c3)CC2)sc2ccc(Cl)cc12 | 880 nM |
| CCCN1CCN(CC(O)CNC(=O)Nc2ccc(Br)cc2)CC1 (configuration not stated) | 60 nM |
| Cc1ccc(NC(=O)NC2CCN(c3ccnc4cc(Cl)ccc34)C2)cc1 (configuration not stated) | 150 nM |
| N=c1c2c(n(Cc3cccc(Cl)c3)c3c1CCC3)CCCC2 | 190 nM |
| COc1ccc2nc(-c3ccc(C(=O)NCCCN4CCN(c5cc(Cl)ccc5OC)CC4)cc3)[nH]c2c1 | 770 nM |
| CCOc1ncccc1CN1CCC(N2CCc3cc(NC(=O)c4ccco4)ccc32)C1 (configuration not stated) | 760 nM |
| COc1cc2nc(NCCc3cccc(Cl)c3)nc(NCc3ccccc3)c2cc1OC | 120 nM |
| CCC[C@@H]([C@@H](CC(C)C)C(=O)N[C@@H](CCCNc1nccc(C(F)(F)F)n1)C(=O)Nc1nccs1)N(O)C=O | 370 nM |
| COc1ccccc1-c1ccc2nnc(SCC(=O)Nc3ccc4c(c3)OCCO4)n2n1 | 720 nM |
| CCN(CC)CC(O)c1cc(-c2ccc(OC)cc2)nc2cc(Cl)ccc12 (configuration not stated) | 70 nM |
